What was measured:
[1] = system: Leptospira from serogroup Australis (serovar Bratislava); experiment: Antigenic mass of fermenter culture by antigen Elisa, serogroup Australis; assay type: cell-based, L. interrogans (sensu lato)
Experimental: (§1) Supplementation was done either with pure linoleic acid (Sigma Aldrich, >99% pure) as a 10% v/v stock in absolute ethanol (JT Baker). Alternatively, linoleic acid was supplemented by using a BSA that was created with a high level of linoleic acid (high LA BSA). This high LA BSA was used either to replace a standard BSA in EMJH medium, or was used in addition to BSA in the EMJH medium, in which case it was added as a 25% w/v stock solution in sterile water. The high LA BSA or the pure linoleic acid/ethanol supplements were fed to a fermentor over the course of 4 hours, at 0.1-0.2 ml/hour, until the fermentor culture had received a desired total amount of linoleic acid. Different total available levels of linoleic acid have been tested, of between about 5 and 425 μg/ml in the total volume. The fermenter cultures of Leptospira were supplemented at different cell-densities i.e. at early-, mid- or end phase culture. Typical mid-phase cell density was at about 5×10̂8 cells/ml, which was reached during day 2 of the main incubation. Upon supplementation with linoleic acid from the pure linoleic acid in ethanol stock, sometimes a small decrease in pH was noted, which was corrected by applying some NaOH.
(§2) 2004. Royal Tropical Institute, Amsterdam.
(§3) In a next study it was confirmed that the increase in antigenic mass upon supplementation with linoleic acid is a general phenomenon in Leptospira. In several experiments cultures of Leptospira strains from several serogroups were proliferated in fermenters in similar set-ups as before and with a similar supplementation: in EMJH medium with either standard BSA or with high LA BSA; some cultures were further supplemented with 100 μg/ml linoleic acid, from pure linoleic acid in ethanol. Results of analyses of biomass and antigen amount are presented in FIGS. 6-7 (Sejroe), and 8-9 (Grippotyphosa), and are summarised in Table 5.
Similarly, for serogroup Australis (serovar Bratislava), an increase in antigenic mass with 45% was observed; here the low LA BSA medium was used for supplementation.

Leptospira culture = experiment: Linoleic acid supplementation of a Leptospira culture, serogroup not stated; assay type: cell-based
Experimental: as §1

[2] = system: Leptospira from serogroup Sejroe (serovar Hardjo); experiment: Antigenic mass of fermenter culture by antigen Elisa, serogroup Sejroe; assay type: cell-based, L. interrogans (sensu lato); conditions: for Antigenic mass, 2 day average, Ag U/10^9 cells/ml: average of days 5 and 6
Experimental: as §1, §2, §3
Some increase in biomass was observed after supplementation, but the increase in antigen amount was much higher. The fermenter was run for 6 days, and scores for these experiments were averaged over days 5 and 6 of the culture.

[3] = system: Leptospira of serogroup Icterohaemorrhagiae; experiment: Antigenic mass of fermenter culture by antigen Elisa, serogroup Icterohaemorrhagiae; assay type: cell-based, L. interrogans (sensu lato); conditions: for antigenic mass: average of days 3-5; for Ag. mass, average of days 4-5, Ag U/10^9 cells/ml: standard BSA, total 105 μg/ml; for Ag. mass, average of days 3-5, Ag U/10^9 cells/ml: EMJH with standard BSA; for relative Ag. mass (%), average of days 4-5: relative to non-supplemented = 100; for Ag U/10^9 cells/ml, at 3 days: different BSA ingredients in EMJH medium, no supplementation
Experimental: (§4) During all fermentation experiments the temperature was controlled at about 29° C. The medium was aerated with headspace airflow, and the dissolved oxygen (pO2) concentration was controlled by automatic variation of the agitation-rate, to maintain a set pO2 concentration. Temperature, pH and pO2 concentration were monitored online, but pH and foam formation were not controlled.
as §1, §2
An arbitrary number of antigen units is affixed to the sample, for example: 1000 Units/ml.

[4] = system: Leptospira of serogroup Icterohaemorrhagiae; experiment: Biomass (total cell count, Petroff-Hausser counting chamber) of fermenter culture, serogroup Icterohaemorrhagiae; assay type: cell-based, L. interrogans (sensu lato)
Experimental: as §4
as §1, with “Typical mid-phase cell density was at about 5×10̂8 cells/ml, which was reached during day 2 of the main incubation. Upon supplementation with linoleic acid from the pure linoleic acid in ethanol stock, sometimes a small decrease in pH was noted, which was corrected by applying some NaOH.” left out

[5] = system: Leptospira from serogroup Grippotyphosa; experiment: Antigenic mass of fermenter culture by antigen Elisa, serogroup Grippotyphosa; assay type: cell-based, L. interrogans (sensu lato); conditions: for Antigenic mass, 2 day average, Ag U/10^9 cells/ml: average of days 4 and 5
Experimental: as §1, §2, §3
For serogroup Grippotyphosa the scores were averaged over days 4 and 5 of the culture.

[6] = 100 μg/ml added, total 125 μg/ml, relative to high LA BSA culture = 100
[7] = 100 μg/ml pure linoleic acid in ethanol added to high LA BSA medium, C18:2 total 125 μg/ml
[8] = EMJH with high LA BSA, C18:2 total 25 μg/ml
[9] = EMJH with high LA BSA, C18:2 total 25 μg/ml, serves as reference = 100

CCCCCC=CCC=CCCCCCCCC(=O)O [linoleic acid, 9,12-octadecadienoic acid]
relative Ag. mass (%) ([1]; 100 μg/ml added, total 105 μg/ml, relative to non-supplemented culture = 100): 145% | Antigenic mass, 2 day average, Ag U/10^9 cells/ml ([1]; 100 μg/ml pure linoleic acid added to low LA BSA medium, C18:2 total 105 μg/ml): 12822 Ag U/10^9 cells/ml | increase of the antigenic mass ([1]; supplementation of low LA BSA medium): 45% | increase of the antigenic mass (Leptospira culture; 25 μg linoleic acid available per ml of culture compared to about 5 μg/ml): significant increase of the antigenic mass | toxicity (Leptospira culture; highest availability level tested, 425 μg/ml, preparation of pure linoleic acid): some toxicity was noticeable for some serovars | relative Ag. mass (%) [2, 6]: 284% | Antigenic mass, 2 day average, Ag U/10^9 cells/ml [2, 7]: 814 Ag U/10^9 cells/ml | increase of the antigenic mass ([2]; supplementation with 100 μg/ml linoleic acid of high LA BSA culture medium): 184% | antigenic mass ([3]; 100 μg/ml pure linoleic acid in ethanol added on day 2 (mid-exponential), EMJH with high LA BSA): 1767 Ag. U/1×10̂9 cells | Ag. mass, average of days 4-5, Ag U/10^9 cells/ml ([3]; 100 μg/ml pure linoleic acid in ethanol supplemented at 1 × 10^8 cells/ml (early phase)): 1783 Ag U/10^9 cells/ml | Ag. mass, average of days 4-5, Ag U/10^9 cells/ml ([3]; 100 μg/ml pure linoleic acid in ethanol supplemented at 5 × 10^8 cells/ml (mid phase)): 1564 Ag U/10^9 cells/ml | Ag. mass, average of days 4-5, Ag U/10^9 cells/ml ([3]; 100 μg/ml pure linoleic acid in ethanol supplemented at 9 × 10^8 cells/ml (late phase)): 1656 Ag U/10^9 cells/ml | increase in antigenic mass after supplementation at different phases ([3]; 100 μg/ml, early-, mid-, late exponential phase, sampling at 2, 4 and 8 hours after the suppletion): acute increase in antigenic mass can be induced at all phases of the Leptospira culture | increase of the antigenic mass ([3]; 200 μg/ml pure linoleic acid in ethanol, EMJH with high LA BSA): slightly less increase of the antigenic mass compared to that of the 100 μg/ml group | increase of the antigenic mass ([3]; exemplary increase following application of the method (linoleic acid supplementation)): 121% | Ag. mass, average of days 3-5, Ag U/10^9 cells/ml ([3]; supplemented 75 μg/ml in mid-exponential phase, C18:2 total 80 μg/ml): 1450 Ag U/10^9 cells/ml | relative Ag. mass (%), average of days 3-5 ([3]; supplemented 75 μg/ml, C18:2 total 80 μg/ml, relative to non-supplemented culture with standard BSA = 100): 199% | Ag. mass, average of days 3-5, Ag U/10^9 cells/ml ([3]; supplemented 150 μg/ml in mid-exponential phase, C18:2 total 155 μg/ml): 1550 Ag U/10^9 cells/ml | relative Ag. mass (%), average of days 3-5 ([3]; supplemented 150 μg/ml, C18:2 total 155 μg/ml, relative to non-supplemented culture with standard BSA = 100): 213% | relative Ag. mass (%), average of days 4-5 ([3]; supplemented at 1 × 10^8 cells/ml, 100 μg/ml): 226% | relative Ag. mass (%), average of days 4-5 ([3]; supplemented at 5 × 10^8 cells/ml, 100 μg/ml): 198% | relative Ag. mass (%), average of days 4-5 ([3]; supplemented at 9 × 10^8 cells/ml, 100 μg/ml): 210% | toxicity for the bacteria (cell numbers decreased rapidly after supplementation) ([4]; 400 μg/ml pure linoleic acid in ethanol, EMJH with high LA BSA): induced toxicity | relative Ag. mass (%) [5, 6]: 163% | Antigenic mass, 2 day average, Ag U/10^9 cells/ml [5, 7]: 8286 Ag U/10^9 cells/ml | increase of the antigenic mass ([5]; supplementation with linoleic acid (100 μg/ml) of high LA BSA medium): 63%

BSA, BovoLep ®: BSA (Bovogen, Australia) recommended for Leptospira culture; standard BSA enriched with a number of vegetable fatty acids
effect on antigenic mass ([3]; BSA ingredient in EMJH medium): no significant effect | Ag U/10^9 cells/ml, at 3 days [3]: 498 Ag U/10^9 cells/ml | effect on biomass of Leptospira ([4]; BSA ingredient in EMJH medium): did increase the biomass

BSA, BovoStar ®: a standard all-purpose BSA from the same manufacturer (Bovogen)
Ag U/10^9 cells/ml, at 3 days [3]: 533 Ag U/10^9 cells/ml

BSA, Millipore: a standard commercial BSA (Millipore)
Ag U/10^9 cells/ml, at 3 days [3]: 525 Ag U/10^9 cells/ml

high LA BSA: BSA that was created with a high level of linoleic acid
Antigenic mass, 2 day average, Ag U/10^9 cells/ml [2, 8]: 287 Ag U/10^9 cells/ml | relative Ag. mass (%) [2, 9]: 100% | increase of antigenic mass ([3]; 25 instead of 5 μg/ml linoleic acid available): 124% | antigenic mass ([3]; high LA BSA at 1% w/v in EMJH, 25 μg/ml linoleic acid available): 1636 Ag U/1×10̂9 cells | Ag. mass, average of days 3-5, Ag U/10^9 cells/ml ([3]; supplemented 50 μg/ml linoleic acid as high LA BSA solution, C18:2 total 55 μg/ml): 1612 Ag U/10^9 cells/ml | relative Ag. mass (%), average of days 3-5 ([3]; supplemented 50 μg/ml linoleic acid as high LA BSA, C18:2 total 55 μg/ml, relative to non-supplemented culture = 100): 221% | Antigenic mass, 2 day average, Ag U/10^9 cells/ml [5, 8]: 5074 Ag U/10^9 cells/ml | relative Ag. mass (%) [5, 9]: 100%
